A short description of data set [1]: Epimerization of chiral compounds in simulated gastric fluid (SGF). It is filed as physicochemical. Particulars: 24 h. How it is done:
Epimerization Method for Studying Chiral Compounds in Simulated Gastric Fluid (SGF) and Stimulated Intestinal Fluid (SIF)
A measured quantity of sample was dissolved in SGF or SIF at the concentration of 1 mg/mL in a volumetric flask and appropriate number of aliquots of this solution were transferred to incubation vials as per the given time points. For the sample of zero hour, the appropriate volume of saturated Bicarbonate solution was added immediately to the sample, and was stirred for 5-10 mins. The compound was extracted in a suitable solvent (e.g. Ethyl acetate), decanting the organic layer. The organic solvent was evaporated, and the residue was dissolved in an appropriate solvent (Methanol/Ethanol), filtered through a 0.22 μm membrane filter and analyzed by chiral HPLC. The remaining aliquots were incubated at different temperatures i.e. 25° C. and 37° C. in a water bath as per the given time points. The respective samples were retrieved from the incubator/Water bath at different time intervals as per the given time points: 90 mins, 4 h, 6 h, 12 h and 24 h, and the same procedure for sample preparation was followed for the zero hour sample.
All the chromatograms were obtained at the specified wavelength, compiled and the curves between Time Vs % Area were plotted.

Data set [2] deals with T1, rat adrenergic α1B receptor (Rattus norvegicus, UniProt P15823).
T1 construct: rat adrenergic α1B receptor obtained from Wistar Rat liver; from tissue; host or cells: Wistar rat liver
T1 sequence (P15823 1-515): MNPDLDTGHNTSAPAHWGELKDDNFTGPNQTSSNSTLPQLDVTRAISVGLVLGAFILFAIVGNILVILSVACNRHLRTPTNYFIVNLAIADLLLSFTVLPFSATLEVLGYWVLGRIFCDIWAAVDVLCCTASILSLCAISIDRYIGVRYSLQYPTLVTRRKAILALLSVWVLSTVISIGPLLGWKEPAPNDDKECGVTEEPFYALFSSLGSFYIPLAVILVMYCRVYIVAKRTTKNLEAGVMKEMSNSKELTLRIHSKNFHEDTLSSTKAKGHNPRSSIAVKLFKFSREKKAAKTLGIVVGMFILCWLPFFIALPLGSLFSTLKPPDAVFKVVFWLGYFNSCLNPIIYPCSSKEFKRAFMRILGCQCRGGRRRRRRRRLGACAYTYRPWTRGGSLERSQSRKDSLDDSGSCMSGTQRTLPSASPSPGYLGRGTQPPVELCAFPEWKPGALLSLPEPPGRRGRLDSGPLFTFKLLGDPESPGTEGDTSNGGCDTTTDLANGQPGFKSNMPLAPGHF
In words: Radioligand binding, adrenergic α1B (Protocol Group A). The conditions noted are these: 0.1 μM compound, [3H]Prazosin, read-out: percent inhibition of specific binding, Adrenergic α1B. How it is done:
To evaluate in radioligand binding assays the activity of compounds of the invention, rat adrenergic α1B receptor obtained from Wistar Rat liver (Garcia-S'ainz, J. et al, Biochem. Biophys. Res. Commun. 186:760, 1992; Michel, A. et al, Br. J. Pharmacol. 98:883, 1989) in a modified Tris-HCl buffer (50 mM Tris-HCl buffer, pH 7.4, 0.5 mM EDTA) was used. Compounds of the invention were incubated with 0.25 nM [^3H]Prazosin for 60 min at 25° C. Non-specific binding was estimated in the presence of 10 μM phentolamine. Receptor proteins were filtered and washed, the filters were then counted to determine [^3H]Prazosin specifically bound. Compounds were screened at 1 μM or lower, using 1% DMSO as vehicle. Compounds of the invention were tested in this biochemical assay and percent inhibition of specific binding was determined. Biochemical assay results are presented as the percent inhibition of specific binding in Table B1a.

In data set [3] the target is T2, Human adrenergic α2B receptor (Homo sapiens, UniProt P18089).
T2 sequence (P18089 1-450): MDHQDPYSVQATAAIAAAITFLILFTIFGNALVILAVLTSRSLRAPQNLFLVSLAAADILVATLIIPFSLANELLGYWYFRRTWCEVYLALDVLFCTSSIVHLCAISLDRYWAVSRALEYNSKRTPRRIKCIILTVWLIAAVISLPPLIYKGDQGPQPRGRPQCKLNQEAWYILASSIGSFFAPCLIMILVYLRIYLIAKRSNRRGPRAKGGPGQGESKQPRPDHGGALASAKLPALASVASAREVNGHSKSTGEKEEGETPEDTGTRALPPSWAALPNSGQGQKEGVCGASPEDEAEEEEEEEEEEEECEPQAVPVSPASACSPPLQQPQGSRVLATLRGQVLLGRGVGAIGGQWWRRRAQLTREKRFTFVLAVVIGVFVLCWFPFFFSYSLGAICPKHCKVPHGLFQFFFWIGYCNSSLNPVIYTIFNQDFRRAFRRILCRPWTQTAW
As to the kind of experiment: Radioligand binding, adrenergic α2B (Protocol Group A). Also on record: expressed in transfected cells; host or cells: CHO-K1. Particulars: 0.03 μM compound, [3H]Rauwolscine, read-out: percent inhibition of specific binding, Adrenergic α2B. As to the method: To evaluate in radioligand binding assays the activity of compounds of the invention, human recombinant adrenergic α2B receptor expressed in Chinese hamster ovary (CHO) K1 cells (Uhlen, S. et al, Eur. J. Pharmacol. 343(1):93, 1998) in a modified Tris-HCl buffer (50 mM Tris-HCl, pH 7.4, 12.5 mM MgCl2, 1 mM EDTA, 0.2% BSA) was used. Compounds of the invention were incubated with 2.5 nM [3H]Rauwolscine for 60 min at 25° C. Non-specific binding was estimated in the presence of 10 μM Prazosin. Receptor proteins were filtered and washed, the filters were then counted to determine [3H]Rauwolscine specifically bound. Compounds were screened at 1 μM or lower, using 1% DMSO as vehicle. Compounds of the invention were tested in this biochemical assay and percent inhibition of specific binding was determined. Biochemical assay results are presented as the percent inhibition of specific binding in Table B1a.

Our source for the epimerization and inhibition values is patent US20150315188A1, “COMPOUNDS AND METHODS FOR TREATMENT OF HYPERTENSION” (MEDIVATION TECHNOLOGIES, INC., priority 2012, published 2015).

Turning to `Cc1ccc2c(c1)c1c(n2CC(O)c2ccncc2)CCN2CCCC12` (single isomer, unassigned) [Compound No. 178d], the epimerization result in data set [1] (25° C.) is given as “up to 41.29%”; in data set [1] (37° C.) it was 50.13%.

Usually inhibition stands for the relative decrease from the control value, in per cent. Turning to `Cc1ccc2c(c1)c1c(n2CC(OC(=O)N2CCCC2)c2ccncc2)CCN(C)C1` (single isomer, unassigned) [4b], the inhibition at 0.1 µM in data set [2] worked out at 35%. The inhibition at 0.03 µM in data set [3] was determined as 86%.

For the molecule `Cc1ccc2c(c1)c1c(n2CC(C)(O)c2ccc(F)nc2)CCN2CCCC12` (single isomer, unassigned) [6a], the inhibition at 0.1 µM in data set [2] turned out to be 91%. Also, the inhibition at 0.03 µM in data set [3] came to 107%.

For the molecule `Cc1cc(F)c2c(c1)c1c(n2CC(C)(O)c2cccnc2)CCN2CCCC12` (centres unmarked) [Compound No. 79a], the values for the epimerization in data set [1] (25° C.) and in data set [1] (37° C.) were 2% and 21.39%, respectively.
